According to US8367658B2, “Pyrazin-2-yl-pyridin-2-yl-amine and pyrazin-2-yl-pyrimidin-4-yl-amine compounds and their use” (Cancer Research Technology Limited, priority 2007, dated 2013):
Values joined by “and” are separate entries in the source; they are usually repeats but may differ in a detail not shown here. Equal values may be shown once.

The compounds below were run against T1, CHK1 (Homo sapiens, UniProt O14757) (assay: CHK1 kinase function inhibition assay (DELFIA, phosphorylation of a CDC25C peptide)). Settings: CHK1 1 nM, ATP 30 μM, 30 minutes at room temperature.
T1 sequence (O14757 1-476): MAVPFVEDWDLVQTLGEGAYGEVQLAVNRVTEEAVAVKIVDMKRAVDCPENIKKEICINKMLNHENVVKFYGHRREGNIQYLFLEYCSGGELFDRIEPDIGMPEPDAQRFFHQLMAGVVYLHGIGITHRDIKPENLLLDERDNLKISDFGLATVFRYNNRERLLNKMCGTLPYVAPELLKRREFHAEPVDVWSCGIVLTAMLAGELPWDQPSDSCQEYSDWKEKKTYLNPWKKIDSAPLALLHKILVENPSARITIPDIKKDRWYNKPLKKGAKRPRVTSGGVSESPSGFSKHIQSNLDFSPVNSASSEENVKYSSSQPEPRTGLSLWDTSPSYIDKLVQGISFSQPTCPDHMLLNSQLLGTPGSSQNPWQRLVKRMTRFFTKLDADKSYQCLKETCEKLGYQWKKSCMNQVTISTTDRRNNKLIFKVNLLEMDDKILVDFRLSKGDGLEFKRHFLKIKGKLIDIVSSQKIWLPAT
Type: biochemical
Experimental: Measurement of Inhibition of CHK1 Kinase Function
CHK1 kinase function was measured in a DELFIA® assay in order to monitor phosphorylation of a CDC25C peptide using a specific phospho antibody.
The reaction mixture was incubated for 30 minutes at room temperature and then stopped by the addition of buffer (125 μL) containing 40 mM EDTA, 0.05% Tween 20, 0.1% BSA in TBS (10× concentrate, Sigma). An aliquot (100 μL) of the stopped reaction mixture was transferred to a black neutravidin-coated plate (Perbio) and incubated for 1 hour on a shaker (Titertek, Flow Laboratories) at room temperature. […] The plates were washed a further four times with wash buffer before the addition of enhancement solution (100 μL/well, PerkinElmer Life Sciences).

IC50 | Compound
≤ 100 nM | CC(C)NC(=O)c1cnc(Nc2cnc(C#N)cn2)cc1NCC1CCNCC1 [Compound Y-086, 6-(5-Cyanopyrazin-2-ylamino)-N-isopropyl-4-(piperidin-4-ylmethylamino)nicotinamide]
1000 to 10000 nM | CC1(CNc2cc(Nc3cnc(C#N)cn3)ncn2)CCNCC1 [Compound Z-028, 5-(6-((4-Methylpiperidin-4-yl)methylamino)pyrimidin-4-ylamino)pyrazine-2-carbonitrile]
1000 to 10000 nM | COc1ccc(CCC(=O)Nc2cnc(Nc3cnc(C#N)cn3)cc2NCC2CCNCC2)cc1 [Compound Y-012, N-(6-(5-Cyanopyrazin-2-ylamino)-4-(piperidin-4-ylmethylamino)pyridin-3-yl)-3-(4-methoxyphenyl)propanamide]
≤ 1000 nM and 600 nM and 100 to 1000 nM | N#Cc1cnc(Nc2cc(NCCCCN)ncn2)cn1 [Compound Z-016, 5-(6-(4-Aminobutylamino)pyrimidin-4-ylamino)pyrazine-2-carbonitrile]
1000 to 10000 nM | Cc1ncsc1CCC(=O)Nc1cnc(Nc2cnc(C#N)cn2)cc1NCC1CCCNC1 (stereo not shown) [Compound Y-054, N-(6-(5-Cyanopyrazin-2-ylamino)-4-(piperidin-3-ylmethylamino)pyridin-3-yl)-3-(4-methylthiazol-5-yl)propanamide]
≤ 1000 nM and 100 to 1000 nM | N#Cc1cnc(Nc2cc(NCCC[C@@H](N)C(=O)Nc3ccccc3)ncn2)cn1 [Compound Z-025, (R)-2-Amino-5-(6-(5-cyanopyrazin-2-ylamino)pyrimidin-4-ylamino)-N-phenylpentanamide]
≤ 100 nM | N#Cc1cnc(Nc2cc(NCC3CNCCO3)c(C(=O)Nc3ccccc3)cn2)cn1 (stereo not shown) [Compound Y-102, 6-(5-Cyanopyrazin-2-ylamino)-4-(morpholin-2-ylmethylamino)-N-phenylnicotinamide]
100 to 1000 nM | N#Cc1cnc(Nc2cc(NCC3CCNCC3)c(C(N)=O)cn2)cn1 [Compound Y-101, 6-(5-Cyanopyrazin-2-ylamino)-4-(piperidin-4-ylmethylamino)nicotinamide]
≤ 1000 nM and 100 to 1000 nM | COC(=O)c1cnc(Nc2cnc(C)cn2)cc1NCC1CCNCC1 [Compound Y-036, Methyl 6-(5-methylpyrazin-2-ylamino)-4-(piperidin-4-ylmethylamino)nicotinate]
≤ 100 nM | N#Cc1cnc(Nc2cc(NCCC3CNCCO3)c(-c3ccccc3)cn2)cn1 (stereo not shown) [Compound Y-138, 5-(4-(2-(Morpholin-2-yl)ethylamino)-5-phenylpyridin-2-ylamino)pyrazine-2-carbonitrile]
≤ 100 nM | N#Cc1cnc(Nc2cc(NC[C@H]3CCCNC3)c(N)cn2)cn1 [Compound Y-047, (S)-5-(5-Amino-4-(piperidin-3-ylmethylamino)pyridin-2-ylamino)pyrazine-2-carbonitrile]
≤ 100 nM | N#Cc1cnc(Nc2cc(NCC3CCCNC3)c(NC(=O)CCC3CCNCC3)cn2)cn1 (stereo not shown) [Compound Y-053, N-(6-(5-Cyanopyrazin-2-ylamino)-4-(piperidin-3-ylmethylamino)pyridin-3-yl)-3-(piperidin-4-yl)propanamide]
1000 to 10000 nM | CN(CC1CCNCC1)c1cc(Nc2cnc(C#N)cn2)ncn1 [Compound Z-031, 5-(6-(Methyl(piperidin-4-ylmethyl)amino)pyrimidin-4-ylamino)pyrazine-2-carbonitrile]
1000 to 10000 nM | N#Cc1cnc(Nc2cc(NCCCCO)ncn2)cn1 [Compound Z-041, 5-(6-(4-Hydroxybutylamino)pyrimidin-4-ylamino)pyrazine-2-carbonitrile]
≤ 100 nM | COCc1ccc(-c2cnc(Nc3cnc(C#N)cn3)cc2NCC2CCNCC2)cc1 [Compound Y-127, 5-(5-(4-(Methoxymethyl)phenyl)-4-(piperidin-4-ylmethylamino)pyridin-2-ylamino)pyrazine-2-carbonitrile]

Compound | IC50
COC(=O)c1cnc(Nc2cnc(C#N)cn2)cc1N[C@H]1CC2CC[C@H](C1)N2C(=O)OC(C)(C)C (stereo in doubt) [Compound Y-074, (1R,5R)-tert-Butyl 3-(2-(5-cyanopyrazin-2-ylamino)-5-(methoxycarbonyl)pyridin-4-ylamino)-8-azabicyclo[3.2.1]octane-8-carboxylate] | 1000 to 10000 nM
